Like-named read-outs stand apart in the source and are kept apart here.
How the values were obtained:
[1] = for Compatibility with Minocycline HCl: tested after the storage for up to 3 weeks; for Compatibility with Minocycline HCl (observations): on dissolution / storage; for Effect of anti-oxidant on oxidation of Minocycline HCl: waterless medium of propylene glycol and PEG 200
Description: The ratio between MCH and the tested excipient is detailed below. Visual inspection was the major criterion for indication of compatibility. The color of intact MCH suspension is pale yellow; and any change of color (e.g., to dark orange, red, green, brown and black) indicates oxidation or degradation.
Other than hydrogenated castor oil, beeswax, paraffin and hard fat, the aforesaid items listed are oily emollients.
Additives were tested for compatibility with MCH. […] In parallel, antioxidants were added to the MCH suspensions comprising water.

[2] = Doxycycline Hyclate Compatibility Test; assay type: physicochemical; conditions: for Effect of anti-oxidant on oxidation of Doxycycline Hyclate: waterless medium of propylene glycol and PEG 200
Description: (§1) A similar compatibility study was conducted for Doxycycline Hyclate and Doxycycline Monohydrate.
(§2) Different compositions of hydrophilic and hydrophobic solvents containing Doxycycline Hyclate (Set I and Set II) and Doxycycline Monohydrate (Set III) were prepared by weighing the antibiotic in a glass vial and shaking overnight with each solvent investigated.
Group II included Doxycycline Hyclate mixed with various vehicles with addition of antioxidants like alpha tocopherol, butylated hydroxytoluene (BHT), and ascorbic acid.

[3] = Doxycycline Monohydrate Compatibility Test; assay type: physicochemical
Description: as §1, §2
A similar compatibility test was performed on another form of Doxycycline—Doxycycline Monohydrate.

[4] = tested on: papulopustular rosacea; conditions: cited from earlier work; for IGA = Clear/Almost Clear / Inflammatory Lesions: Mean Absolute Reduction / ≥2 IGA Grade Reduction: Week 16
[5] = Phase I PK study in adults with acne: topical minocycline foam 4% for 21 days vs single oral dose of minocycline (FX2014-03); assay type: in vivo, human; conditions: Period 1, single oral dose ~1 mg/kg minocycline, Day 1-5; for AUC(0-inf) / AUC / Cmax / half-life / Tmax: both sexes, human, plasma, po, 1 mg/kg
Description: Each application was approximately 4 g (a maximal-use dose). […] On the day of initial dosing (Day 1), subjects checked into the clinic where they were confined until 1 hour after study drug was administered. Predose clinical assessments were performed and a 1 mL blood sample for PK analysis was obtained before study drug was administered.
SUBJECTS: Adults were eligible for this study if they were 18 to 35 years of age; children were eligible for the pediatric study if they were 9 to 16 years and 11 months of age and in good health, as judged on the basis of their medical history and the screening procedures. They were required to have moderate-to-severe facial acne vulgaris as well as acne affecting at least two additional regions of the body (neck, upper chest, upper back, or arms).
On days 6, 9, 10, 11, and 16, blood samples were obtained at approximately 30 minutes before the scheduled application. […] After the final application, subjects were asked to return for additional blood sampling on days 23, 24, and 25.
BIOANALYTICAL METHODS: Blood samples were collected and centrifuged, and the separated plasma was stored at approximately −70° C.
Actual sample collection times were used for the purpose of calculating pharmacokinetic parameters. […] Geometric mean was calculated for Cmax, AUC0-tldc, AUC0-inf, and AUC0-tau, and the harmonic mean was calculated for t1/2. Analysis of multiple-dose accumulation, determination of steady state, and other pertinent comparisons of pharmacokinetic parameters across or between doses were performed using the appropriate statistical methods. […] The CIs were expressed as a percentage relative to the LSM of the reference treatment.

[6] = Doxycycline Monohydrate Compatibility Test; assay type: physicochemical; conditions: waterless medium of propylene glycol and PEG 200
[7] = oily emollients, MCH:excipient 1:250, 25° C. and 40° C., maximum sixty days
[8] = tested after the storage for up to 3 weeks
[9] = hydrophilic solvents, MCH:excipient 1:250, 25° C. and 40° C., maximum sixty days
[10] = foam adjuvants, MCH:excipient 1:50
[11] = surfactants solubilized in mineral oil, MCH:excipient 1:50
[12] = mixtures stored at 25° C., 40° C. and 50° C. for two weeks

CC(C)OC(=O)CCCCC(=O)OC(C)C [diisopropyl adipate]
Compatibility with MCH [1, 7]: compatible | Compatibility with Minocycline HCl [1]: Yes | Compatibility with Doxycycline Hyclate [2, 8]: Yes | Compatibility with Doxycycline Monohydrate [3, 8]: No

C[S+](C)[O-] [Dimethyl Sulfoxide]
Compatibility with MCH [1, 9]: incompatible

CCCCCCCCCCCCCCCCO [Cetyl alcohol]
Compatibility with MCH [1, 10]: compatible

CCCCCCCC/C=C\CCCCCCCC(=O)O [Oleic acid]
Compatibility with MCH [1, 10]: compatible

CO[C@H]1CO[C@H]2[C@@H]1OC[C@H]2OC [Dimethyl Isosorbide]
Compatibility with MCH [1, 9]: incompatible | Compatibility with Minocycline HCl [1]: No | Compatibility with Doxycycline Hyclate [2, 8]: No | Compatibility with Doxycycline Monohydrate [3, 8]: No

C[C@H]1c2cccc(O)c2C(=O)C2=C(O)[C@]3(O)C(=O)C(C(N)=O)=C(O)[C@@H](N(C)C)[C@@H]3[C@@H](O)[C@@H]21 [Oracea]
Baseline IGA Moderate ([4]; Study 1, Active): 52.8% | Baseline IGA Severe ([4]; Study 1, Active): 40.9% | Inflammatory Lesions: Baseline No. of lesions ([4]; Study 1, Active): 19.5 | Baseline IGA Moderate ([4]; Study 2, Active): 54.2% | Baseline IGA Severe ([4]; Study 2, Active): 33.8% | Inflammatory Lesions: Baseline No. of lesions ([4]; Study 2, Active): 20.5 | IGA = Clear/Almost Clear ([4]; Study 1, Active): 30.7% | Inflammatory Lesions: Mean Absolute Reduction ([4]; Study 1, Active): −11.8 | ≥2 IGA Grade Reduction ([4]; Study 1, Active): 45.7% | IGA = Clear/Almost Clear ([4]; Study 2, Active): 14.8% | Inflammatory Lesions: Mean Absolute Reduction ([4]; Study 2, Active): −9.5 | ≥2 IGA Grade Reduction ([4]; Study 2, Active): 22.5%

CCCCCCCC/C=C\CCCCCCCCO [Oleyl alcohol]
Compatibility with MCH [1, 10]: compatible | Compatibility with Minocycline HCl [1]: Yes | Compatibility with Doxycycline Hyclate [2, 8]: Yes

CC(C)CCCCCCCCCCCCCCC(=O)O [Isostearic acid]
Compatibility with MCH [1, 10]: not compatible | Compatibility with Minocycline HCl [1]: No | Compatibility with Doxycycline Hyclate [2, 8]: Yes

SPAN 80
Compatibility with MCH [1, 11]: incompatible

SPAN 40
Compatibility with MCH [1, 11]: incompatible

C[Si]1(C)O[Si](C)(C)O[Si](C)(C)O[Si](C)(C)O[Si](C)(C)O1 [Cyclomethicone 5 NF]
Compatibility with Minocycline HCl [1]: Yes | Compatibility with Doxycycline Hyclate [2, 8]: Yes | Compatibility with Doxycycline Monohydrate [3, 8]: Yes

CCCCCCCCCCCCCC(=O)OC(C)C [Isopropyl myristate]
Compatibility with MCH [1, 7]: compatible

Sorbitan Monolaurate
Compatibility with Minocycline HCl [1]: No | Compatibility with Doxycycline Hyclate [2, 8]: No | Compatibility with Doxycycline Monohydrate [3, 8]: No

CCCCCCCCCCCCCCCCCC(=O)O [Stearic acid]
Compatibility with MCH [1, 10]: compatible

CCCCCCCCCCCCCCCCCC(=O)OCC(O)CO (stereo not drawn) [Glyceryl monostearate]
Compatibility with MCH [1, 11]: incompatible

SPAN 60
Compatibility with MCH [1, 11]: incompatible

CN(C)c1ccc(O)c2c1C[C@H]1C[C@H]3[C@H](N(C)C)C(O)=C(C(N)=O)C(=O)[C@@]3(O)C(O)=C1C2=O [Solodyn]
kel, Mean [5]: 0.044 h⁻¹ | kel, Median [5]: 0.04 h⁻¹ | AUC(0-inf) ([5]; read-out: AUC0-inf, Geometric Mean): 15100 ng·h/mL | AUC(0-inf) ([5]; read-out: AUC0-inf, Mean): 15500 ng·h/mL | AUC(0-inf) ([5]; read-out: AUC0-inf, Median): 15600 ng·h/mL | AUC ([5]; read-out: AUC0-tldc, Geometric Mean): 14800 ng·h/mL | AUC ([5]; read-out: AUC0-tldc, Mean): 15200 ng·h/mL | AUC ([5]; read-out: AUC0-tldc, Median): 15400 ng·h/mL | Cmax ([5]; read-out: Cmax, Geometric Mean): 850 ng/mL | Cmax ([5]; read-out: Cmax, Mean): 873 ng/mL | Cmax ([5]; read-out: Cmax, Median): 801 ng/mL | half-life ([5]; read-out: T1/2, Harmonic Mean (converted)): 15.8 h | half-life ([5]; read-out: T1/2, Mean (converted)): 16 h | half-life ([5]; read-out: T1/2, Median (converted)): 15.9 h | Tmax ([5]; read-out: Tmax, Mean): 2.7 h | Tmax ([5]; read-out: Tmax, Median): 3 h

BHA/BHT
Effect of antioxidant on MCH degradation [1]: did not prevent MCH degradation

OCC(O)CO [Glycerin]
Compatibility with MCH [1, 9]: incompatible | Compatibility with Minocycline HCl (observations) [1]: intensive oxidation | Compatibility with Minocycline HCl [1]: No | Compatibility with Doxycycline Hyclate [2, 8]: No | Compatibility with Doxycycline Monohydrate [3, 8]: No

CCOCCOCCO [Diethylene glycol monoethyl ether]
Compatibility with MCH [1, 9]: incompatible

OCCCCO [Butylene Glycol]
Compatibility with MCH [1, 9]: incompatible | Compatibility with Minocycline HCl [1]: No | Compatibility with Doxycycline Hyclate [2, 8]: No | Compatibility with Doxycycline Monohydrate [3, 8]: No

CCCCCCCCCCC(CO)CCCCCCCC (stereo not drawn) [Octyl dodecanol]
Compatibility with MCH [1, 7]: compatible | Compatibility with Minocycline HCl (observations) [1]: full compatibility | Compatibility with Minocycline HCl [1]: Yes | Compatibility with Doxycycline Hyclate [2, 12]: incompatibility | Compatibility with Doxycycline Hyclate [2, 8]: No | Compatibility with Doxycycline Monohydrate [3, 12]: incompatibility | Compatibility with Doxycycline Monohydrate [3, 8]: No

Sorbitan sesquistearate
Compatibility with MCH [1, 11]: incompatible

Sorbitan Monostearate
Compatibility with Minocycline HCl [1]: Yes | Compatibility with Doxycycline Hyclate [2, 8]: Yes

CCCCCCCCCCCCCCO [Myristyl alcohol]
Compatibility with MCH [1, 10]: compatible | Compatibility with Minocycline HCl [1]: Yes | Compatibility with Doxycycline Hyclate [2, 8]: Yes

Cyclomethicone
Compatibility with MCH [1, 7]: compatible

O=C1O[C@H]([C@@H](O)CO)C(O)=C1O [ascorbic acid]
Effect of anti-oxidant on oxidation of Minocycline HCl [1]: did not prevent the oxidation | Effect of anti-oxidant on oxidation of Doxycycline Hyclate [2]: did not prevent the oxidation | Effect of anti-oxidant on oxidation of Doxycycline Monohydrate [6]: did not prevent the oxidation

CCCCCCCCCCCCCCCCCCCCCCO [Behenyl alcohol]
Compatibility with MCH [1, 10]: compatible

CC(O)CC(C)(C)O (stereo not drawn) [Hexylene Glycol]
Compatibility with MCH [1, 9]: incompatible | Compatibility with Minocycline HCl [1]: No | Compatibility with Doxycycline Monohydrate [3, 12]: oxidized | Compatibility with Doxycycline Monohydrate [3, 8]: No

CCCCCCCCCCCCCCCCCCO [Stearyl alcohol]
Compatibility with MCH [1, 10]: compatible | Compatibility with Minocycline HCl [1]: Yes | Compatibility with Doxycycline Hyclate [2, 8]: Yes

CC1CCC(C(C)C)C(O)C1 (stereo not drawn) [Menthol]
Compatibility with MCH ([1]; additives, MCH:excipient 1:50): compatible

CCCCCCCCCCCCCCCC(=O)O [Palmitic acid]
Compatibility with MCH [1, 10]: compatible

CC(C)CCCCCCCCCCCCCCCO [Isostearyl alcohol]
Compatibility with MCH [1, 10]: compatible

CCCOC(=O)c1cc(O)c(O)c(O)c1 [propyl gallate]
Effect of antioxidant on MCH degradation [1]: did not prevent MCH degradation

CC(O)CO (stereo not drawn) [Propylene glycol]
Compatibility with MCH [1, 9]: incompatible | Compatibility with Minocycline HCl [1]: No | Compatibility with Doxycycline Hyclate [2, 8]: No | Compatibility with Doxycycline Monohydrate [3, 8]: No

Cc1c(C)c2c(c(C)c1O)CC[C@@](C)(CCC[C@H](C)CCC[C@H](C)CCCC(C)C)O2 [alpha-tocopherol]
Effect of antioxidant on MCH degradation [1]: did not prevent MCH degradation | Effect of anti-oxidant on oxidation of Minocycline HCl [1]: did not prevent the oxidation | Effect of anti-oxidant on oxidation of Doxycycline Hyclate [2]: did not prevent the oxidation | Effect of anti-oxidant on oxidation of Doxycycline Monohydrate [6]: did not prevent the oxidation

Reference: patent US10849847B2, “Compositions and methods for treating rosacea and acne” (Foamix Pharmaceuticals Ltd., priority 2016, dated 2020)
